# Test results reported in patent US20230365592A1 (Agios Pharmaceuticals, Inc., priority 2022, published 2023).
# Target: T1, human PAH with the R408W mutation (Homo sapiens, UniProt P00439, R408W)
# T1 construct: expressed in transfected cells
# T1 sequence (P00439 1-452 R408W): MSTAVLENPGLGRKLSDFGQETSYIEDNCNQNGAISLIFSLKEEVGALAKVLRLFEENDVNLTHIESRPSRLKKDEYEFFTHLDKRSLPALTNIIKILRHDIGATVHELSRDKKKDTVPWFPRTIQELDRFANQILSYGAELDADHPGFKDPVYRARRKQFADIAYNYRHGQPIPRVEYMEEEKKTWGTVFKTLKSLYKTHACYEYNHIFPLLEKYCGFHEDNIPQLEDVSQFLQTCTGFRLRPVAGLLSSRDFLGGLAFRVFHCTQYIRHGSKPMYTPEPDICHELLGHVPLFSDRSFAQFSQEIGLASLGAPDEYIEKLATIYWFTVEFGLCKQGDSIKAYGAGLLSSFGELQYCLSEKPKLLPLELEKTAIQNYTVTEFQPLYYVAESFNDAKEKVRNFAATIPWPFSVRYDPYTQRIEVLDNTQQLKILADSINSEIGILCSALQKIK
# Assay: Cell Based Phenylalanine Flux Assay;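 also: after compound treatment, cells received sepiapterin plus isotope-labelled Phenylalanine for 4 hours, then labelled Tyrosine in the medium was quantified, 10-point 2-fold dilution series run in duplicate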
# Settings: A375 cells expressing human PAH R408W; 24 hrs compound incubation; 13C-Tyrosine by LC-MS; average where tested multiple times; read-out: AC50
row,SMILES,AC50 [nM]
1,"FC(F)(F)c1cccn2nc([C@@H]3c4nc[nH]c4CCN3c3ccccn3)cc12 [Example 1870, (S)-5-(pyridin-2-yl)-4-(4-(trifluoromethyl)pyrazolo[1,5-a]pyridin-2-yl)-4,5,6,7-tetrahydro-1H-imidazo[4,5-c]pyridine]",< 500
2,"FC(F)(F)c1cccn2nc([C@H]3c4nc[nH]c4CCN3c3ccccn3)cc12 [Example 1871, (R)-5-(pyridin-2-yl)-4-(4-(trifluoromethyl)pyrazolo[1,5-a]pyridin-2-yl)-4,5,6,7-tetrahydro-1H-imidazo[4,5-c]pyridine]",> 5000
3,"Nc1cnc(N2CCc3[nH]cnc3[C@@H]2c2cc3c(Cl)cccn3n2)nc1 [Example 1872, (R)-2-(4-(4-chloropyrazolo[1,5-a]pyridin-2-yl)-1,4,6,7-tetrahydro-5H-imidazo[4,5-c]pyridin-5-yl)pyrimidin-5-amine]",> 5000
4,"Nc1cnc(N2CCc3[nH]cnc3[C@H]2c2cc3c(Cl)cccn3n2)nc1 [Example 1873, (S)-2-(4-(4-chloropyrazolo[1,5-a]pyridin-2-yl)-1,4,6,7-tetrahydro-5H-imidazo[4,5-c]pyridin-5-yl)pyrimidin-5-amine]",500 to 1000
5,"CC(C)c1cccn2nc([C@@H]3c4nc[nH]c4CCN3C(=O)c3nnc(C(C)(C)F)o3)cc12 [Example 1884, (S)-(5-(2-fluoropropan-2-yl)-1,3,4-oxadiazol-2-yl)(4-(4-isopropylpyrazolo[1,5-a]pyridin-2-yl)-1,4,6,7-tetrahydro-5H-imidazo[4,5-c]pyridin-5-yl)methanone]",< 500
6,"CC(C)c1cccn2nc([C@H]3c4nc[nH]c4CCN3C(=O)c3nnc(C(C)(C)F)o3)cc12 [Example 1885, (R)-(5-(2-fluoropropan-2-yl)-1,3,4-oxadiazol-2-yl)(4-(4-isopropylpyrazolo[1,5-a]pyridin-2-yl)-1,4,6,7-tetrahydro-5H-imidazo[4,5-c]pyridin-5-yl)methanone]",> 5000
7,"CC(C)c1cccn2nc([C@@H]3c4nc[nH]c4CCN3C(=O)c3nnc(-c4cnn(C)c4)o3)cc12 [Example 1886, (S)-(4-(4-isopropylpyrazolo[1,5-a]pyridin-2-yl)-1,4,6,7-tetrahydro-5H-imidazo[4,5-c]pyridin-5-yl)(5-(1-methyl-1H-pyrazol-4-yl)-1,3,4-oxadiazol-2-yl)methanone]",< 500
8,"CC(C)c1cccn2nc([C@H]3c4nc[nH]c4CCN3C(=O)c3nnc(-c4cnn(C)c4)o3)cc12 [Example 1887, (R)-(4-(4-isopropylpyrazolo[1,5-a]pyridin-2-yl)-1,4,6,7-tetrahydro-5H-imidazo[4,5-c]pyridin-5-yl)(5-(1-methyl-1H-pyrazol-4-yl)-1,3,4-oxadiazol-2-yl)methanone]",> 5000
9,"Cc1cccn2nc([C@@H]3c4nc[nH]c4CCN3c3nnc(-c4ccc(F)cc4)o3)cc12 [Example 1891, (S)-2-(4-fluorophenyl)-5-(4-(4-methylpyrazolo[1,5-a]pyridin-2-yl)-1,4,6,7-tetrahydro-5H-imidazo[4,5-c]pyridin-5-yl)-1,3,4-oxadiazole]",< 500
10,"Fc1ccc(-c2nnc(N3CCc4[nH]cnc4[C@H]3c3cc4c(C(F)(F)F)cccn4n3)o2)cc1 [Example 1893, (S)-2-(4-fluorophenyl)-5-(4-(4-(trifluoromethyl)pyrazolo[1,5-a]pyridin-2-yl)-1,4,6,7-tetrahydro-5H-imidazo[4,5-c]pyridin-5-yl)-1,3,4-oxadiazole]",< 500
11,"CC(C)c1cccn2nc([C@@H]3c4nc[nH]c4CCN3C(=O)c3nnc(C(C)(C)C)o3)cc12 [Example 1902, (S)-(5-(tert-butyl)-1,3,4-oxadiazol-2-yl)(4-(4-isopropylpyrazolo[1,5-a]pyridin-2-yl)-1,4,6,7-tetrahydro-5H-imidazo[4,5-c]pyridin-5-yl)methanone]",< 500

# Second part, the molecule after the results:
row,AC50 [nM],SMILES
1,> 5000,"Cn1cc(-c2nnc(C(=O)N3CCc4[nH]cnc4[C@@H]3c3cc4c(Br)cccn4n3)o2)cn1 [Example 1869, (R)-(4-(4-bromopyrazolo[1,5-a]pyridin-2-yl)-1,4,6,7-tetrahydro-5H-imidazo[4,5-c]pyridin-5-yl)(5-(1-methyl-1H-pyrazol-4-yl)-1,3,4-oxadiazol-2-yl)methanone]"
2,> 5000,"CCc1cccn2nc([C@H]3c4nc[nH]c4CCN3C(=O)c3nnc(C4CC4)o3)cc12 [Example 1874, (R)-(5-cyclopropyl-1,3,4-oxadiazol-2-yl)(4-(4-ethylpyrazolo[1,5-a]pyridin-2-yl)-1,4,6,7-tetrahydro-5H-imidazo[4,5-c]pyridin-5-yl)methanone]"
3,< 500,"CCc1cccn2nc([C@@H]3c4nc[nH]c4CCN3C(=O)c3nnc(C4CC4)o3)cc12 [Example 1875, (S)-(5-cyclopropyl-1,3,4-oxadiazol-2-yl)(4-(4-ethylpyrazolo[1,5-a]pyridin-2-yl)-1,4,6,7-tetrahydro-5H-imidazo[4,5-c]pyridin-5-yl)methanone]"
4,500 to 1000,"Cn1cc(-c2nnc(C(=O)N3CCc4[nH]cnc4[C@H]3c3cc4c(C5CC5)cccn4n3)o2)cn1 [Example 1876, (S)-(4-(4-cyclopropylpyrazolo[1,5-a]pyridin-2-yl)-1,4,6,7-tetrahydro-5H-imidazo[4,5-c]pyridin-5-yl)(5-(1-methyl-1H-pyrazol-4-yl)-1,3,4-oxadiazol-2-yl)methanone]"
5,> 5000,"Cn1cc(-c2nnc(C(=O)N3CCc4[nH]cnc4[C@@H]3c3cc4c(C5CC5)cccn4n3)o2)cn1 [Example 1877, (R)-(4-(4-cyclopropylpyrazolo[1,5-a]pyridin-2-yl)-1,4,6,7-tetrahydro-5H-imidazo[4,5-c]pyridin-5-yl)(5-(1-methyl-1H-pyrazol-4-yl)-1,3,4-oxadiazol-2-yl)methanone]"
6,500 to 1000,"O=C(c1nnc(-c2cnn(C(F)F)c2)o1)N1CCc2[nH]cnc2[C@H]1c1cc2c(C3CC3)cccn2n1 [Example 1878, (S)-(4-(4-cyclopropylpyrazolo[1,5-a]pyridin-2-yl)-1,4,6,7-tetrahydro-5H-imidazo[4,5-c]pyridin-5-yl)(5-(1-(difluoromethyl)-1H-pyrazol-4-yl)-1,3,4-oxadiazol-2-yl)methanone]"
7,< 500,"O=C(c1nnc(-c2ccn(C(F)(F)F)n2)o1)N1CCc2[nH]cnc2[C@H]1c1cc2c(C3CC3)cccn2n1 [Example 1880, (S)-(4-(4-cyclopropylpyrazolo[1,5-a]pyridin-2-yl)-1,4,6,7-tetrahydro-5H-imidazo[4,5-c]pyridin-5-yl)(5-(1-(trifluoromethyl)-1H-pyrazol-3-yl)-1,3,4-oxadiazol-2-yl)methanone]"
8,> 5000,"O=C(c1nnc(-c2ccn(C(F)(F)F)n2)o1)N1CCc2[nH]cnc2[C@@H]1c1cc2c(C3CC3)cccn2n1 [Example 1881, (R)-(4-(4-cyclopropylpyrazolo[1,5-a]pyridin-2-yl)-1,4,6,7-tetrahydro-5H-imidazo[4,5-c]pyridin-5-yl)(5-(1-(trifluoromethyl)-1H-pyrazol-3-yl)-1,3,4-oxadiazol-2-yl)methanone]"
9,< 500,"CC(C)c1cccn2nc([C@@H]3c4nc[nH]c4CCN3C(=O)c3nnc(C4CC4)o3)cc12 [Example 1882, (S)-(5-cyclopropyl-1,3,4-oxadiazol-2-yl)(4-(4-isopropylpyrazolo[1,5-a]pyridin-2-yl)-1,4,6,7-tetrahydro-5H-imidazo[4,5-c]pyridin-5-yl)methanone]"
10,< 500,"Cn1ccc(-c2nnc(C(=O)N3CCc4[nH]cnc4[C@H]3c3cc4c(Br)cccn4n3)o2)n1 [Example 1889, (S)-(4-(4-bromopyrazolo[1,5-a]pyridin-2-yl)-1,4,6,7-tetrahydro-5H-imidazo[4,5-c]pyridin-5-yl)(5-(1-methyl-1H-pyrazol-3-yl)-1,3,4-oxadiazol-2-yl)methanone]"
11,> 5000,"CCc1cccn2nc([C@H]3c4nc[nH]c4CCN3C(=O)c3nnc(-c4ccccn4)o3)cc12 [Example 1894, (R)-(4-(4-ethylpyrazolo[1,5-a]pyridin-2-yl)-1,4,6,7-tetrahydro-5H-imidazo[4,5-c]pyridin-5-yl)(5-(pyridin-2-yl)-1,3,4-oxadiazol-2-yl)methanone]"
12,> 5000,"O=C(c1nnc(-c2ccccn2)o1)N1CCc2[nH]cnc2[C@@H]1c1cc2c(C3CC3)cccn2n1 [Example 1896, (R)-(4-(4-cyclopropylpyrazolo[1,5-a]pyridin-2-yl)-1,4,6,7-tetrahydro-5H-imidazo[4,5-c]pyridin-5-yl)(5-(pyridin-2-yl)-1,3,4-oxadiazol-2-yl)methanone]"
13,< 500,"Cc1c(-c2nnc(C(=O)N3CCc4[nH]cnc4[C@H]3c3cc4c(C5CC5)cccn4n3)o2)cnn1C [Example 1898, (S)-(4-(4-cyclopropylpyrazolo[1,5-a]pyridin-2-yl)-1,4,6,7-tetrahydro-5H-imidazo[4,5-c]pyridin-5-yl)(5-(1,5-dimethyl-1H-pyrazol-4-yl)-1,3,4-oxadiazol-2-yl)methanone]"
14,1000 to 5000,"Cc1c(-c2nnc(C(=O)N3CCc4[nH]cnc4[C@@H]3c3cc4c(C5CC5)cccn4n3)o2)cnn1C [Example 1899, (R)-(4-(4-cyclopropylpyrazolo[1,5-a]pyridin-2-yl)-1,4,6,7-tetrahydro-5H-imidazo[4,5-c]pyridin-5-yl)(5-(1,5-dimethyl-1H-pyrazol-4-yl)-1,3,4-oxadiazol-2-yl)methanone]"
15,< 500,"Cn1ccc(-c2nnc(C(=O)N3CCc4[nH]cnc4[C@H]3c3cc4c(C5CC5)cccn4n3)o2)n1 [Example 1900, (S)-(4-(4-cyclopropylpyrazolo[1,5-a]pyridin-2-yl)-1,4,6,7-tetrahydro-5H-imidazo[4,5-c]pyridin-5-yl)(5-(1-methyl-1H-pyrazol-3-yl)-1,3,4-oxadiazol-2-yl)methanone]"
